According to patent US20200392562A1, “[…] REACTION C[…]” (priority 2017, published 2020):
“Also recorded” adds a separate entry of the source. Structures can show the parent of a compound that is named as a salt. Where two headings read alike, the source gives them in different places.

Tests used:
Taq DNA polymerase = Taq DNA polymerase (Thermus aquaticus, UniProt P19821); type: biochemical
Text: A forward primer (SEQ ID No: 1) and a reverse primer (SEQ ID No: 2) were used with the PCR program described in Table 3. PCR products were detected by agarose gel electrophoresis followed by ethidium bromide staining

[1] = test system: Platinum SuperFi DNA polymerase
Procedure: Yield and tolerance for urea in PCR master mix with different amines compared to the control master mix (with KCl) was evaluated by amplification of a 1 kb fragment from 42 ng of human genomic DNA template in 50 μl PCR reactions.
PCR master mix (1×) composition was 0.16 u/μL Platinum SuperFi DNA polymerase in 1× SuperFi buffer. In some experiments, 110 mM of KCl was substituted for solution comprising amines. […]
The PCR program used for the experiment is described in Table 4.
(§1) Products were detected by electrophoresis in a 1% TAE gels followed by staining with ethidium bromide.

[2] = test system: Platinum SuperFi DNA polymerase; type: biochemical; settings: for yield of PCR product: up to 20 μl of Agencourt XP magnetic beads in 50 μl PCR reaction, amine instead of 110 mM KCl
Procedure: PCR yield and tolerance for magnetic beads in PCR master mix with different amines compared to the control master mix (with KCl) was evaluated by amplification of a 1 kb fragment from 42 ng of human genomic DNA template. PCR was performed in 50 μl PCR reactions in the presence of increasing amounts of magnetic beads.
The PCR master mix (1×) concentration of KCl (110 mM) was substituted for solution comprising an amine.
Agencourt XP magnetic beads were used in the experiment. From 5 to 35 μl of magnetic beads were washed 2 times with 80% EtOH and dried (an imitation of a protocol for purifying nucleic acids). Dried magnetic beads were resuspended in 50 μl of PCR reaction (complete with PCR master mix, DNA matrix, and primers). The forward primer was SEQ ID No: 3, and the reverse primer was SEQ ID No: 4.
as §1

[3] = test system: mutant Taq DNA polymerase
[4] = PCR buffers containing amine, PCR buffer 1: 0.04%
[5] = sodium citrate 0-0.08%, PCR buffers with 10, 40 or 50 mM amine
[6] = urea 0-230 mM, PCR buffers with 10, 40 or 50 mM amine

Chain of Taq DNA polymerase (P19821 whole entry): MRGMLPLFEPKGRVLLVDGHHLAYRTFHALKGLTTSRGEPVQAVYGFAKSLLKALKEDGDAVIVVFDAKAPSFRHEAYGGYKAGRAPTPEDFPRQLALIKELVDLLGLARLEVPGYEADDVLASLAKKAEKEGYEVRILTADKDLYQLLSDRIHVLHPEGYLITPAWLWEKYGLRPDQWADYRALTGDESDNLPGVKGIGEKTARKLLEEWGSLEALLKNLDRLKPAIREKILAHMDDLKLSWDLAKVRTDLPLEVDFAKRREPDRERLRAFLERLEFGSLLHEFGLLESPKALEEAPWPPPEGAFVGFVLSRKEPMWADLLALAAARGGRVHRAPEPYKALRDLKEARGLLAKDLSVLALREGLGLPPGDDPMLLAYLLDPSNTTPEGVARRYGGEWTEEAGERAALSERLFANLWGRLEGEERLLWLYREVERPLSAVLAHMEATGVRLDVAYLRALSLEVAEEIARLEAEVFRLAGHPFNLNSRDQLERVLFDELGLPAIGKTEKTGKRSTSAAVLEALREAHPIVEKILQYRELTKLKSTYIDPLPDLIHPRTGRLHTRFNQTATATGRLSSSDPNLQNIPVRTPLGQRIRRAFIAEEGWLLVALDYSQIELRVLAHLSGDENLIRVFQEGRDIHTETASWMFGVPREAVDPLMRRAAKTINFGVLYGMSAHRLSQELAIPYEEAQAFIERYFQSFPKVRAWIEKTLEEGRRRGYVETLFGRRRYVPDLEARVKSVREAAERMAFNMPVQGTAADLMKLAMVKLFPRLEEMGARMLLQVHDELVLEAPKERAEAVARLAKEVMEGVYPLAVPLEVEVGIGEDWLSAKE

## CCNCC.Cl [diethylamine hydrochloride]
Taq DNA polymerase
  PCR product yield compared to PCR buffer 1 without amines: higher
  greater tolerance to sodium citrate compared to PCR buffer 1: 1.25 times
  greater tolerance to urea compared with PCR buffer 1: 2.5 times
  sodium citrate concentration tolerated: 0.05%
Taq DNA polymerase; hydrochloride
  PCR product yield compared with PCR buffer 1: increased; also recorded: Higher
[1]
  PCR yield: much higher
  tolerance to urea compared to PCR buffer with KCl: Increased tolerance
[2]
  yield of PCR product: Increased yield

## CC(C)NC(C)C.Cl [diisopropylamine hydrochloride]
Taq DNA polymerase
  PCR product yield compared to PCR buffer 1 without amines: higher
Taq DNA polymerase; [4]
  sodium citrate concentration tolerated: 0.05%
Taq DNA polymerase; [5]
  PCR product yield compared with PCR buffer 1: Higher
Taq DNA polymerase; sodium citrate, PCR buffer 1: 0.04%
  greater tolerance to sodium citrate compared to PCR buffer 1: 1.25 times
Taq DNA polymerase; [6]
  PCR product yield compared with PCR buffer 1: increased
Taq DNA polymerase; urea, PCR buffer 1: 37 mM
  greater tolerance to urea compared with PCR buffer 1: 2.5 times

## CNC [dimethylamine hydrochloride]
[3]
  PCR product yield: increased
[1]
  PCR yield: much higher
SuperFi DNA polymerase
  PCR product yield: increased
[2]
  tolerated amount of magnetic beads in the PCR reaction: increased the tolerated amount
  yield of PCR product: Increased yield
[2]; reaction buffer with 70, 80 or 90 mM KCl, part or all of the potassium salt replaced with amine, data not shown
  PCR product yield in the presence of magnetic beads: increased

## CN(C)C [trimethylamine hydrochloride]
Taq DNA polymerase
  PCR product yield compared to PCR buffer 1 without amines: higher
Taq DNA polymerase; [4]
  sodium citrate concentration tolerated: 0.04%
Taq DNA polymerase; sodium citrate 0-0.08%, PCR buffers containing amine
  tolerance to sodium citrate compared with PCR buffer 1: same tolerance
Taq DNA polymerase; [5]
  PCR product yield compared with PCR buffer 1: Higher
Taq DNA polymerase; urea 0-230 mM, PCR buffers containing amine
  resistance to urea compared with PCR buffer 1: same resistance
Taq DNA polymerase; [6]
  PCR product yield compared with PCR buffer 1: increased
[2]
  yield of PCR product: Increased yield
